Counter-ions that a name gives are not always drawn.
Row | melting point | SMILES
1 | 176 °C | COc1ccc2nc(C(=O)Nc3nnn(Cc4ccc(Cl)c(Cl)c4)c3C)sc2c1 [Example 45, N-{1-[(3,4-Dichlorophenyl)methyl]-5-methyl-1H-1,2,3-triazol-4-yl}-6-(methyloxy)-1,3-benzothiazole-2-carboxamide]
2 | 129 °C | COCCNC(=O)c1sc(NC(=O)c2nnn(Cc3ccc(Cl)c(Cl)c3)c2C)nc1C [Example 26, 1-[(3,4-Dichlorophenyl)methyl]-5-methyl-N-[4-methyl-5-({[2-(methyloxy)ethyl]amino}carbonyl)-1,3-thiazol-2-yl]-1H-1,2,3-triazole-4-carboxamide]
3 | 234.1 °C | CNC(=O)c1ccnc(NC(=O)c2nnn(Cc3ccc(Cl)c(Cl)c3)c2C)c1 [Example 32, 2-[({1-[(3,4-Dichlorophenyl)methyl]-5-methyl-1H-1,2,3-triazol-4-yl}carbonyl)amino]-N-methyl-4-pyridine-carboxamide]
4 | 304.9 °C | Cc1c(C(=O)Nc2ncc(C(=O)N(C)C)s2)nnn1Cc1ccc(Cl)c(Cl)c1 [Example 30, 1-[(3,4-Dichlorophenyl)methyl]-N-{5-[(dimethylamino)carbonyl]-1,3-thiazol-2-yl}-5-methyl-1H-1,2,3-triazole-4-carboxamide]
5 | 335.6 °C | CNC(=O)c1cnc(NC(=O)c2nnn(Cc3ccc(Cl)c(Cl)c3)c2C)s1 [Example 29, 1-[(3,4-Dichlorophenyl)methyl]-5-methyl-N-{5-[(methylamino)carbonyl]-1,3-thiazol-2-yl}-1H-1,2,3-triazole-4-carboxamide]
6 | 202.9 °C | Cc1nc(NC(=O)c2nnn(Cc3ccc(Cl)c(Cl)c3)c2C)sc1C(=O)N1CCOCC1 [Example 24, 1-[(3,4-Dichlorophenyl)methyl]-5-methyl-N-[4-methyl-5-(4-morpholinyl-carbonyl)-1,3-thiazol-2-yl]-1H-1,2,3-triazole-4-carboxamide]
7 | 144 °C | Cc1nc(NC(=O)c2nnn(Cc3ccc(Cl)c(Cl)c3)c2C)sc1C(=O)N(C)C (as salt: hydrochloride) [Example 28, 1-[(3,4-Dichlorophenyl)methyl]-N-{5-[(dimethylamino)carbonyl]-4-methyl-1,3-thiazo1-2-yl}-5-methyl-1H-1,2,3-triazole-4-carboxamide]
8 | 204.4 °C | Cc1nc(NC(=O)c2nnn(Cc3ccc(Cl)c(Cl)c3)c2C)sc1C(=O)NC(C)C [Example 20, 1-[(3,4-Dichlorophenyl)methyl]-5-methyl-N-(4-methyl-5-{[(1-methylethyl)amino]carbonyl}-1,3-thiazol-2-yl)-1H-1,2,3-triazole-4-carboxamide]
9 | 215.6 °C | Cc1c(C(=O)Nc2nncs2)nnn1Cc1ccc(Cl)c(Cl)c1 [Example 38, 1-[(3,4-Dichlorophenyl)methyl]-5-methyl-N-1,3,4-thiadiazol-2-yl-1H-1,2,3-triazole-4-carboxamide]
10 | 259.3 °C | Cc1c(C(=O)Nc2ncc(C(=O)NCCC(C)C)s2)nnn1Cc1ccc(Cl)c(Cl)c1 [Example 23]
11 | 210.4 °C | CNC(=O)c1sc(NC(=O)c2cn(Cc3ccc(Cl)c(Cl)c3)nn2)nc1C [Example 34, 1-[(3,4-Dichlorophenyl)methyl]-N-{4-methyl-5-[(methylamino)carbonyl]-1,3-thiazol-2-yl}-1H-1,2,3-triazole-4-carboxamide]
12 | 280.9 °C | NC(=O)c1cnc(NC(=O)c2cn(Cc3ccc(Cl)c(Cl)c3)nn2)s1 [Example 36, N-[5-(Aminocarbonyl)-1,3-thiazol-2-yl]-1-[(3,4-dichlorophenyl)methyl]-1H-1,2,3-triazole-4-carboxamide]
13 | 153.6 °C | Cc1c(C(=O)Nc2nnc(CO)s2)nnn1Cc1ccc(Cl)c(Cl)c1 [Example 42, 1-[(3,4-Dichlorophenyl)methyl]-N-[5-(hydroxymethyl)-1,3,4-thiadiazol-2-yl]-5-methyl-1H-1,2,3-triazole-4-carboxamide]
14 | 210.6 °C | CCNC(=O)c1sc(NC(=O)c2cn(Cc3ccc(Cl)c(Cl)c3)nn2)nc1C [Example 33, 1-[(3,4-Dichlorophenyl)methyl]-N-{5-[(ethylamino)carbonyl]-4-methyl-1,3-thiazo1-2-yl}-1H-1,2,3-triazole-4-carboxamide]
15 | 161.8 °C | Cc1nc(NC(=O)c2nnn(Cc3ccc(Cl)c(Cl)c3)c2C)sc1CO [Example 41, 1-[(3,4-Dichlorophenyl)methyl]-N-[5-(hydroxymethyl)-4-methyl-1,3-thiazol-2-yl]-5-methyl-1H-1,2,3-triazole-4-carboxamide]
16 | 191 °C | Cc1c(C(=O)Nc2cc(CO)ccn2)nnn1Cc1ccc(Cl)c(Cl)c1 [Example 44, 1-[(3,4-Dichlorophenyl)methyl]-N-[4-(hydroxymethyl)-2-pyridinyl]-5-methyl-1H-1,2,3-triazole-4-carboxamide]
17 | 205 °C | COCc1c(C(=O)Nc2ncc(CO)s2)nnn1Cc1ccc(Cl)c(Cl)c1 [Example 40, 1-[(3,4-Dichlorophenyl)methyl]-N-[5-(hydroxymethyl)-1,3-thiazol-2-yl]-5-[(methyloxy)methyl]-1H-1,2,3-triazole-4-carboxamide]
18 | 274.8 °C | O=C(Nc1ncc(C(=O)NCCO)s1)c1cn(Cc2ccc(Cl)c(Cl)c2)nn1 [Example 35, 1-[(3,4-Dichlorophenyl)methyl]-N-(5-{[(2-hydroxyethyl)amino]carbonyl}-1,3-thiazol-2-yl)-1H-1,2,3-triazole-4-carboxamide]
19 | 166 °C | Cc1nc(NC(=O)c2nnn(Cc3ccc(Cl)c(Cl)c3)c2C)sc1C(=O)NCCO [Example 27, 1-[(3,4-Dichlorophenyl)methyl]-N-(5-{[(2-hydroxyethyl)-amino]carbonyl}-4-methyl-1,3-thiazol-2-yl)-5-methyl-1H-1,2,3-triazole-4-carboxamide]

Second part, the compound before the results:

Row | SMILES | melting point
20 | Cc1nc(NC(=O)c2nnn(Cc3ccc(Cl)c(Cl)c3)c2C)sc1C [Example 10, 1-[(3,4-Dichlorophenyl)methyl]-N-(4,5-dimethyl-1,3-thiazol-2-yl)-5-methyl-1H-1,2,3-triazole-4-carboxamide] | 210.4 °C
21 | COCc1nnc(NC(=O)c2nnn(Cc3ccc(Cl)c(Cl)c3)c2C)s1 [Example 7, 1-[(3,4-Dichlorophenyl)methyl]-5-methyl-N-{5-[(methyloxy)methyl]-1,3,4-thiadiazo1-2-yl}-1H-1,2,3-triazole-4-carboxamide] | 178.3 °C
22 | Cc1c(C(=O)Nc2nc3[nH]c(=O)[nH]c(=O)c3s2)nnn1Cc1ccc(Cl)c(Cl)c1 | 279.9 °C
23 | Cc1nc(NC(=O)c2nnn(Cc3ccc(Cl)c(Cl)c3)c2C)sc1C(=O)O [Example 16, 2-[({1-[(3,4-Dichlorophenyl)methyl]-5-methyl-1H-1,2,3-triazol-4-yl}carbonyl)amino]-4-methyl-1,3-thiazole-5-carboxylic acid] | 262.6 °C
24 | Cc1nc(NC(=O)c2nnn(Cc3ccc(Cl)c(Cl)c3)c2C)sc1C(=O)NCCC(C)C [Example 19, 1-[(3,4-Dichlorophenyl)methyl]-5-methyl-N-(4-methyl-5-{[(3-methylbutyl)amino]carbonyl}-1,3-thiazol-2-yl)-1H-1,2,3-triazole-4-carboxamide] | 174.3 °C
25 | CCOC(=O)Cc1nc(NC(=O)c2nnn(Cc3ccc(Cl)c(Cl)c3)c2C)sc1C [Example 12, Ethyl {2-[({1-[(3,4-dichlorophenyl)methyl]-5-methyl-1H-1,2,3-triazol-4-yl}carbonyl)amino]-5-methyl-1,3-thiazol-4-yl}acetate] | 125 °C
26 | COC(=O)c1cnc(NC(=O)c2nnn(Cc3ccc(Cl)c(Cl)c3)c2C)s1 [Example 4, Methyl 2-[({1-[(3,4-dichlorophenyl)methyl]-5-methyl-1H-1,2,3-triazol-4-yl}carbonyl)amino]-1,3-thiazole-5-carboxylate] | 212 °C
27 | CCOC(=O)c1nnc(NC(=O)c2nnn(Cc3ccc(Cl)c(Cl)c3)c2C)s1 [Example 3, Ethyl 5-[({1-[(3,4-dichlorophenyl)methyl]-5-methyl-1H-1,2,3-triazol-4-yl}carbonyl)amino]-1,3,4-thiadiazole-2-carboxylate] | 203.8 °C
28 | CCOC(=O)c1ccc2nc(NC(=O)c3nnn(Cc4ccc(Cl)c(Cl)c4)c3C)sc2c1 [Example 11, Ethyl 2-[({1-[(3,4-dichlorophenyl)methyl]-5-methyl-1H-1,2,3-triazol-4-yl}carbonyl)amino]-1,3-benzothiazole-6-carboxylate] | 199 °C
29 | COC(=O)c1ccc(NC(=O)c2nnn(Cc3ccc(Cl)c(Cl)c3)c2C)nc1 [Example 14, Methyl 6-[({1-[(3,4-dichlorophenyl)methyl]-5-methyl-1H-1,2,3-triazol-4-yl}carbonyl)amino]-3-pyridinecarboxylate] | 179 °C
30 | CNC(=O)c1sc(NC(=O)c2nnn(Cc3ccc(Cl)c(Cl)c3)c2C)nc1C [Example 18, 1-[(3,4-Dichlorophenyl)methyl]-5-methyl-N-{4-methyl-5-[(methylamino)carbonyl]-1,3-thiazol-2-yl}-1H-1,2,3-triazole-4-carboxamide] | 218.5 °C
31 | COC(=O)c1ccnc(NC(=O)c2nnn(Cc3ccc(Cl)c(Cl)c3)c2C)c1 [Example 15, Methyl 2-[({1-[(3,4-dichlorophenyl)methyl]-5-methyl-1H-1,2,3-triazol-4-yl}carbonyl)amino]-4-pyridinecarboxylate] | 172 °C
32 | Cc1c(C(=O)Nc2ncc(C=O)s2)nnn1Cc1ccc(Cl)c(Cl)c1 [Example 5, 1-[(3,4-Dichlorophenyl)methyl]-N-(5-formyl-1,3-thiazol-2-yl)-5-methyl-1H-1,2,3-triazole-4-carboxamide] | > 260 °C
33 | CCOC(=O)c1sc(NC(=O)c2nnn(Cc3ccc(Cl)c(Cl)c3)c2C)nc1C(F)(F)F [Example 9, Ethyl 2-[({1-[(3,4-dichlorophenyl)methyl]-5-methyl-1H-1,2,3-triazol-4-yl}carbonyl)amino]-4-(trifluoromethyl)-1,3-thiazole-5-carboxylate] | 155 °C
34 | Cc1c(C(=O)Nc2ncc(C(=O)O)o2)nnn1Cc1ccc(Cl)c(Cl)c1 [Example 17, 2-[({1-[(3,4-Dichlorophenyl)methyl]-5-methyl-1H-1,2,3-triazol-4-yl}carbonyl)amino]-1,3-oxazole-5-carboxylic acid] | 201.8 °C

— patent publication US8207204B2, “Triazole derivatives as SCD inhibitors” (GlaxoSmithKline LLC, priority 2007, dated 2012)
